Usually IC50 stands for the point on the concentration scale where inhibition reaches its midpoint.

Experimental findings from patent US11299478B2, “2-cyanopyrimidin-4-yl carbamate or urea derivative or salt thereof, and pharmaceutical composition including same” (HANLIM PHARMACEUTICAL CO., LTD., priority 2018, dated 2022) are described below.

Common to all, as to assay type: biochemical
The target of one assay is cathepsin S (Homo sapiens, UniProt P25774). Kind of assay: Inhibitory activity assay against cathepsin S (enzyme assay). Particulars: Z-Phe-Arg-AMC 70 μM, enzyme 3 nM, pH 6.5, 45 minutes. The procedure:
In order to measure the enzyme activity of cathepsin S, a buffer solution (pH 6.5) consisting of 50 mM MES, 2.5 mM DTT, 1.0 mM EDTA, 0.001% bovine serum albumin (BSA), and 10% DMSO was prepared. The substrate, the test material, and the enzyme were mixed in the buffer solution in a predetermined concentration. The Z-Phe-Arg-AMC substrate was used in the final concentration of 70 μM. The test material was used in the final concentrations of 10.0 μM, 3.33 μM, 1.11 μM, 0.370 μM, 0.123 μM, 0.0412 μM, 0.0137 μM, 0.00457 μM, 0.00152 μM, and 0.000508 μM, respectively. The cathepsin S enzyme was used in the final concentration of 3 nM. The final volume of the enzyme reaction solution was 10 μL.
After reacting the mixture of substrate, test material, and enzyme for 45 minutes, the enzyme activity was measured with the EnVision (Perkin Elmer) microplate reader at an absorption wavelength of 340 nm and an emission wavelength of 460 nm. IC50 values were determined using 4-parameter logistic curve fit program of GraphPad Prism.

Another assay addresses T1, cathepsin K (Homo sapiens, UniProt P43235).
T1 sequence (P43235 115-329): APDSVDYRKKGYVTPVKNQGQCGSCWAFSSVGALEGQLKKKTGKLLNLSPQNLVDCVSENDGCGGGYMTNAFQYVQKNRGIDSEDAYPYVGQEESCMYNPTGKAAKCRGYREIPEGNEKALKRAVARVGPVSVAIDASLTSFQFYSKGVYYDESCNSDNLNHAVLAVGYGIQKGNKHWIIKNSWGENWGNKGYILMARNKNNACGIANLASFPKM
Briefly: Inhibitory activity assay against cathepsin K (enzyme assay). The settings on record: Z-Phe-Arg-AMC 10 μM, enzyme 1 nM, pH 5.5, 30 minutes. In short, it runs like this: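 Fluorogenic assay with 1 nM cathepsin K and 10 μM Z-Phe-Arg-AMC in pH 5.5 buffer (50 mM MES, 2 mM DTT, 2.5 mM EDTA, 0.01% Triton X-100, 10% DMSO). Ten compound concentrations, 10.0 to 0.000508 μM; 30 min reaction, ex 355/em 460 nm; IC50 by 4-parameter logistic fit.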

The next assay addresses cathepsin B (Homo sapiens, UniProt P07858). Kind of assay: Inhibitory activity assay against cathepsin B (enzyme assay). Particulars: Z-Arg-Arg-AMC 40 μM, enzyme 1 nM, pH 6.0, 90 minutes. The procedure: In order to measure the enzyme activity of cathepsin B, a buffer solution (pH 6.0) consisting of 50 mM MES, 5 mM DTT, 2.5 mM EDTA, 0.005% Polysorbate 20, and 10% DMSO was prepared. The substrate, the test material, and the enzyme were mixed in the buffer solution in a predetermined concentration. The Z-Arg-Arg-AMC substrate was used in the final concentration of 40 μM. The test material was used in the final concentrations of 10.0 μM, 3.33 μM, 1.11 μM, 0.370 μM, 0.123 μM, 0.0412 μM, 0.0137 μM, 0.00457 μM, 0.00152 μM, and 0.000508 μM, respectively. The cathepsin B enzyme was used in the final concentration of 1 nM. The final volume of the enzyme reaction solution was 10 μL. After reacting the mixture of substrate, test material, and enzyme for 90 minutes, the enzyme activity was measured with the EnVision (Perkin Elmer) microplate reader at an absorption wavelength of 340 nm and an emission wavelength of 460 nm. IC50 values were determined using 4-parameter logistic curve fit program of GraphPad Prism.

The next assay addresses cathepsin L (Homo sapiens, UniProt P07711). Briefly: Inhibitory activity assay against cathepsin L (enzyme assay). The settings on record: Z-Phe-Arg-AMC 2 μM, enzyme 3 nM, pH 5.5, 30 minutes. The procedure:
In order to measure the enzyme activity of cathepsin L, a buffer solution (pH 5.5) consisting of 50 mM MES, 2.5 mM DTT, 2.5 mM EDTA, 0.005% Polysorbate 20, and 10% DMSO was prepared. The substrate, the test material, and the enzyme were mixed in the buffer solution in a predetermined concentration. The Z-Phe-Arg-AMC substrate was used in the final concentration of 2 μM. The test material was used in the final concentrations of 10.0 μM, 3.33 μM, 1.11 μM, 0.370 μM, 0.123 μM, 0.0412 μM, 0.0137 μM, 0.00457 μM, 0.00152 μM, and 0.000508 μM, respectively. The cathepsin L enzyme was used in the final concentration of 3 nM. The final volume of the enzyme reaction solution was 10 μL. After reacting the mixture of substrate, test material, and enzyme for 30 minutes, the enzyme activity was measured with the EnVision (Perkin Elmer) microplate reader at an absorption wavelength of 340 nm and an emission wavelength of 460 nm. IC50 values were determined using 4-parameter logistic curve fit program of GraphPad Prism.

Some results are limits rather than exact numbers.

Chain of cathepsin L (P07711 114-333, species assumed): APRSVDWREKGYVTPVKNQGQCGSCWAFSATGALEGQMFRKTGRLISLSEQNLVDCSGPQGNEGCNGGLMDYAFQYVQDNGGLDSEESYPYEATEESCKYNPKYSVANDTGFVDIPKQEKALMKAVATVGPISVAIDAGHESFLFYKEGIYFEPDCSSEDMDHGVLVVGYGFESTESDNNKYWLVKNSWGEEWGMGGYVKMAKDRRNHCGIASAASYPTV
Chain of cathepsin S (P25774 115-331, species assumed): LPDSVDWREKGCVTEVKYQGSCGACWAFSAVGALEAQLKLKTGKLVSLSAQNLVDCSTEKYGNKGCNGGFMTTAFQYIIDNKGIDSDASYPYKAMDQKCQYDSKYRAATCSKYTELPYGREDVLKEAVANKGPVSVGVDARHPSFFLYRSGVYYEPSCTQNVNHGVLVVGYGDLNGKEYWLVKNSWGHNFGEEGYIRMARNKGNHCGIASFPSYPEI

On to `N#Cc1nccc(C2(NC(=O)Nc3ccc(-c4ccc(C(=O)NCCc5c[nH]cn5)cc4)cc3)CCCCC2)n1` [Example 184, N-(2-(1H-imidazol-4-yl)ethyl)-4′-(3-(1-(2-cyanopyrimidin-4-yl)cyclohexyl)ureido)-[1,1′-biphenyl]-4-carboxamide], for which the 50% inhibitory concentration (IC50) on cathepsin S was 8050 nM; on cathepsin K, 0.2 nM; against cathepsin B, 2150 nM; against cathepsin L, 2420 nM.

In the case of `N#Cc1nccc(C2(NC(=O)Nc3cc(C(F)(F)F)ccc3C(=O)O)CCCCC2)n1` [Example 98, 2-(3-(1-(2-cyanopyrimidin-4-yl)cyclohexyl)ureido)-4-(trifluoromethyl)benzoic acid], the IC50 on cathepsin S is 4480 nM; at cathepsin K, 61.7 nM; at cathepsin B it was more than 10000 nM; against cathepsin L, more than 10000 nM.

Consider `N#Cc1nccc(C2(NC(=O)OCCc3ccccc3)CCCC2)n1` [Example 4, phenethyl (1-(2-cyanopyrimidin-4-yl)cyclopentyl)carbamate], for which the IC50 was more than 10000 nM on cathepsin S, 1150 nM at cathepsin K, more than 10000 nM at cathepsin B and more than 10000 nM at cathepsin L.

`CC(C)N1CCN(c2ccc(-c3ccc(CNC(=O)NC4(c5ccnc(C#N)n5)CCCCC4)cc3)cc2)CC1` [Example 181, 1-(1-(2-cyanopyrimidin-4-yl)cyclohexyl)-3-((4′-(4-isopropylpiperazin-1-yl)-[1,1′-biphenyl]-4-yl)methyl)urea]: the IC50 against cathepsin S is more than 10000 nM; on cathepsin K it was 1.9 nM; against cathepsin B, more than 10000 nM; against cathepsin L, more than 10000 nM.

In the case of `N#Cc1nccc(C2(NC(=O)Nc3ccc4c(c3)CCC4)CCCC2)n1` [Example 82, 1-(1-(2-cyanopyrimidin-4-yl)cyclopentyl)-3-(2,3-dihydro-1H-inden-5-yl)urea], the IC50 is more than 10000 nM at cathepsin S, 54.5 nM at cathepsin K, 7610 nM against cathepsin B and more than 10000 nM on cathepsin L.

As for `CN(C)C(=O)c1ccc(-c2ccc(NC(=O)NC3(c4ccnc(C#N)n4)CCCCC3)cc2)cc1` [Example 130, 4′-(3-(1-(2-cyanopyrimidin-4-yl)cyclohexyl)ureido)-N,N-dimethyl-[1,1′-biphenyl]-4-carboxamide], the IC50 is 9070 nM on cathepsin S, 7.8 nM at cathepsin K, more than 10000 nM against cathepsin B and more than 10000 nM against cathepsin L.

As to `N#Cc1nccc(C2(NC(=O)Nc3ccc(I)cc3)CCCCC2)n1` [Example 132, 1-(1-(2-cyanopyrimidin-4-yl)cyclohexyl)-3-(4-iodophenyl)urea], the IC50 against cathepsin S was more than 10000 nM; on cathepsin K, 15.9 nM; at cathepsin B, more than 10000 nM; against cathepsin L, more than 10000 nM.

In the case of `N#Cc1nccc(C2(NC(=O)Nc3cc(C(F)(F)F)ccc3F)CCCC2)n1` [Example 83, 1-(1-(2-cyanopyrimidin-4-yl)cyclopentyl)-3-(2-fluoro-5-(trifluoromethyl)phenyl)urea], the IC50 at cathepsin S was more than 10000 nM; at cathepsin K, 17 nM; on cathepsin B, more than 10000 nM; against cathepsin L, more than 10000 nM.

Regarding `Cc1cccc(NC(=O)NC2(c3ccnc(C#N)n3)CCCC2)c1C` [Example 64, 1-(1-(2-cyanopyrimidin-4-yl)cyclopentyl)-3-(2,3-dimethylphenyl)urea], the IC50 on cathepsin S was more than 10000 nM; on cathepsin K, 75.9 nM; on cathepsin B, 5890 nM; against cathepsin L, 5510 nM.

On to `Cc1ccc(C)c(NC(=O)NC2(c3ccnc(C#N)n3)CCCC2)c1` [Example 50, 1-(1-(2-cyanopyrimidin-4-yl)cyclopentyl)-3-(2,5-dimethylphenyl)urea], for which the IC50 on cathepsin S was more than 10000 nM; at cathepsin K, 4.3 nM; on cathepsin B, more than 10000 nM; on cathepsin L, 2670 nM.

For `CC(C)(C)N1CCN(c2ccc(NC(=O)NC3(c4ccnc(C#N)n4)CCCCC3)cc2)CC1` [Example 143, 1-(4-(4-(tert-butyl)piperazin-1-yl)phenyl)-3-(1-(2-cyanopyrimidin-4-yl)cyclohexyl)urea], the IC50 is more than 10000 nM against cathepsin S, 2.3 nM at cathepsin K, more than 10000 nM against cathepsin B and more than 10000 nM at cathepsin L.

As for `N#Cc1nccc(C2(NC(=O)Nc3ccc(I)c(F)c3)CCCCC2)n1` [Example 137, 1-(1-(2-cyanopyrimidin-4-yl)cyclohexyl)-3-(3-fluoro-4-iodophenyl)urea], the IC50 on cathepsin S was 6220 nM; at cathepsin K, 38.2 nM; at cathepsin B, more than 10000 nM; against cathepsin L it was more than 10000 nM.

As to `Cc1ccc(C)c(NC(=O)NC2(c3ccnc(C#N)n3)CCCCC2)c1` [Example 87, 1-(1-(2-cyanopyrimidin-4-yl)cyclohexyl)-3-(2,5-dimethylphenyl)urea], the IC50 was 6260 nM against cathepsin S, 3.6 nM at cathepsin K, more than 10000 nM at cathepsin B and 898 nM on cathepsin L.

Turning to `CS(=O)(=O)Nc1ccc(-c2ccc(NC(=O)NC3(c4ccnc(C#N)n4)CCCCC3)cc2)cc1` [Example 174, N-(4′-(3-(1-(2-cyanopyrimidin-4-yl)cyclohexyl)ureido)-[1,1′-biphenyl]-4-yl)methanesulfonamide], the IC50 against cathepsin S was more than 10000 nM; on cathepsin K it was 11.7 nM; on cathepsin B, more than 10000 nM; against cathepsin L, more than 10000 nM.

Take `CNCCOc1ccc(-c2ccc(NC(=O)NC3(c4ccnc(C#N)n4)CCCCC3)cc2)cc1` [Example 191, 1-(1-(2-cyanopyrimidin-4-yl)cyclohexyl)-3-(4′-(2-(methylamino)ethoxy)-[1,1′-biphenyl]-4-yl)urea]: the 50% inhibitory concentration (IC50) at cathepsin S is more than 10000 nM; on cathepsin K, 0.1 nM; at cathepsin B, 4760 nM; at cathepsin L, more than 10000 nM.

As for `N#Cc1nccc(C2(NC(=O)Nc3ccc(N4CCNCC4)cc3)CCCCC2)n1` [Example 140, 1-(1-(2-cyanopyrimidin-4-yl)cyclohexyl)-3-(4-(piperazin-1-yl)phenyl)urea], the IC50 is more than 10000 nM against cathepsin S, 21.5 nM at cathepsin K, more than 10000 nM at cathepsin B and 6570 nM against cathepsin L.

For the compound `CC(C)N1CCN(c2ccc(NC(=O)NC3(c4ccnc(C#N)n4)CCCCC3)cc2)CC1` [Example 142, 1-(1-(2-cyanopyrimidin-4-yl)cyclohexyl)-3-(4-(4-isopropylpiperazin-1-yl)phenyl)urea], the IC50 against cathepsin S is more than 10000 nM; on cathepsin K it was 17.9 nM; on cathepsin B, more than 10000 nM; on cathepsin L, more than 10000 nM.

For the compound `N#Cc1nccc(C2(NC(=O)OCc3ccc(-c4ccc(F)nc4)cc3)CCCC2)n1` [Example 33, 4-(6-fluoropyridin-3-yl)benzyl (1-(2-cyanopyrimidin-4-yl)cyclopentyl)carbamate], the half-maximal inhibitory concentration (IC50) was more than 10000 nM at cathepsin S, 1620 nM on cathepsin K, more than 10000 nM against cathepsin B and more than 10000 nM against cathepsin L.
